Values after ≈ are worked out from the molar mass of the structure shown.
Legend:
[1] = Aqueous equilibrium solubility in citric acid/disodium phosphate buffer at pH 6.8 at 1 uM after 24 hrs by HPLC method; format: physicochemical; conditions: for solubility thermodynamic at 24 h, 1 µM: citric acid/disodium phosphate buffer, pH 6.8; for solubility: buffer, pH 6.8, 24 h, 1 µM
[2] = Stability in human liver microsomes at 1 uM pretreated for 10 mins followed by NADPH addition after 60 mins by LC/MS analysis relative to hepatic blood flow; format: ADME, microsome; conditions: read-out: Stability
[3] = molecular target: T1, Arachidonate 5-lipoxygenase-activating protein (Homo sapiens, UniProt P20292); assay: Inhibition of FLAP in calcimycin-stimulated human whole blood assessed as reduction in LTB4 production pretreated for 15 mins followed by calcimycin addition after 30 mins by ELISA
T1 sequence (P20292 whole entry): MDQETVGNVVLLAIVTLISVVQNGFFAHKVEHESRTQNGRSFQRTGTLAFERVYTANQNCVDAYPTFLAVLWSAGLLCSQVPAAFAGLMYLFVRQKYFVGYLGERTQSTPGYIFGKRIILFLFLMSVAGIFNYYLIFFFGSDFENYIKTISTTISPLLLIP

[4] = Aqueous kinetic solubility of the compound at pH 7.4; format: physicochemical; conditions: for solubility kinetic: aqueous, read-out: Kinetic_solubility; for Kinetic_solubility: buffer
[5] = Clearance in human hepatocytes at 1 uM measured after 1 hr by LC/MS analysis relative to hepatic blood flow; format: ADME, cell-based, Hepatocyte
[6] = molecular target: T2, hERG (KCNH2) (Homo sapiens, UniProt Q12809); assay: Inhibition of human ERG expressed in CHO cells at 11 uM at -70mV holding potential measured after 300 secs by IonWorks electrophysiology method relative to control; format: cell-based; conditions: CHO cells expressing human ERG
[7] = molecular target: T1, Arachidonate 5-lipoxygenase-activating protein; assay: Displacement of [125I]-L-691831 from human FLAP expressed in Sf9 cell membranes after 2 hrs by Topcount method
[8] = molecular target: T3, Arachidonate 5-lipoxygenase-activating protein (Homo sapiens) (UniProt P20292); assay: Ratio of IC50 for FLAP in calcimycin-stimulated human whole blood to IC50 for displacement of [125I]-L-691831 from human FLAP expressed in Sf9 cell membranes
T3 sequence (whole entry): T1 sequence (P20292 whole entry)

[9] = molecular target: T2, hERG (KCNH2); assay: Inhibition of human ERG expressed in CHO cells at 30 uM at -70mV holding potential measured after 300 secs by IonWorks electrophysiology method relative to control; format: cell-based; conditions: CHO cells expressing human ERG
[10] = molecular target: T2, hERG (KCNH2); assay: Inhibition of human ERG expressed in CHO cells at 14 uM at -70mV holding potential measured after 300 secs by IonWorks electrophysiology method relative to control; format: cell-based; conditions: CHO cells expressing human ERG

T2 sequence (Q12809 whole entry): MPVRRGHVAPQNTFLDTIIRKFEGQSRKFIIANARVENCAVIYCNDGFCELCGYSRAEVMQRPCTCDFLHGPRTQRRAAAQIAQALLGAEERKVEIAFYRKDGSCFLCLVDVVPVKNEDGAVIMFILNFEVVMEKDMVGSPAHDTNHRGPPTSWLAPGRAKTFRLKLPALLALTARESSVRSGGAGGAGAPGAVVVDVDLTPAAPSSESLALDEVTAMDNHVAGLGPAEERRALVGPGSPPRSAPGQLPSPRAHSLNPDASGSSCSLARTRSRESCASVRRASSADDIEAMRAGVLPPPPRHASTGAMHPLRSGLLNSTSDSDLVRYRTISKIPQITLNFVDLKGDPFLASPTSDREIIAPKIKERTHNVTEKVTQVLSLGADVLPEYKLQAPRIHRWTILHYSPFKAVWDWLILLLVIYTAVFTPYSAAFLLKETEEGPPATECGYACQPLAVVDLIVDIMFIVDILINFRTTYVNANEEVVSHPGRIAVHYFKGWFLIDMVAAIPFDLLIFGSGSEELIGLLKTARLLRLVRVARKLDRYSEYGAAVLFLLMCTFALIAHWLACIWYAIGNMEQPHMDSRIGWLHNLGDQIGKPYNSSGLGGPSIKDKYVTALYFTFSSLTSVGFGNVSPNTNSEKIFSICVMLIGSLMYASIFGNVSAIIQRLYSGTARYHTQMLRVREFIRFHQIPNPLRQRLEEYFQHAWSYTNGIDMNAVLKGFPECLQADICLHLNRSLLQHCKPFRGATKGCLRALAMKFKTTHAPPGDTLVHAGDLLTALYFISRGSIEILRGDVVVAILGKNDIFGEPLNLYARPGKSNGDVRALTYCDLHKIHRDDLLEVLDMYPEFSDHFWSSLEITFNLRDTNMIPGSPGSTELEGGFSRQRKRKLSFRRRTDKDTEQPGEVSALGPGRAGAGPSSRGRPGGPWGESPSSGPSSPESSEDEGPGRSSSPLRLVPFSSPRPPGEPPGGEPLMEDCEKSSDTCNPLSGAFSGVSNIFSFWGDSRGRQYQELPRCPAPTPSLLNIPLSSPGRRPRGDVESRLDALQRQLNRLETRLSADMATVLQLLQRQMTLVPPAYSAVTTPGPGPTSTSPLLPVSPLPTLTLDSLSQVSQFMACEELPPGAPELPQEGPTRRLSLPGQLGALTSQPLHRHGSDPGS

Compound: CC(C)(O)Cn1cc(-c2nc(C3(c4ccc(-c5cnc(N)nc5)nc4)CCC3)no2)cn1
- solubility thermodynamic at 24 h, 1 µM [1]: 45 µg/mL (≈ 104 µM)
- hepatic extraction ratio at 1 h, 1 µM [2]: < 0.24
- IC50 [3]: 124 nM
- solubility kinetic [4]: > 43 µg/mL
- hepatic extraction ratio at 1 h, 1 µM [5]: 0.5
- inhibition at 5 min, 11 µM [6]: < 10%

Compound: Nc1ncc(-c2ccc(C3(c4noc(N)n4)CCC3)cc2)cn1
- solubility kinetic [4]: 22 µg/mL (≈ 71.3 µM)

Compound: Nc1ncc(-c2ccc(C3(c4noc(-c5cnn(C6COC6)c5)n4)CCC3)cn2)cn1
- hepatic extraction ratio at 1 h, 1 µM [2]: < 0.24
- IC50 [3]: 71 nM
- solubility kinetic [4]: 25 µg/mL (≈ 60 µM)
- inhibition at 5 min, 11 µM [6]: < 10%

Compound: Cn1cc(-c2nc(C3(c4ccc(-c5cnc(N)nc5)nc4)CCC3)no2)cn1
- hepatic extraction ratio at 1 h, 1 µM [2]: 0.19
- IC50 [3]: 270 nM
- solubility kinetic [4]: 24 µg/mL (≈ 64.1 µM)
- inhibition at 5 min, 11 µM [6]: 11%

Compound: CC(C)(O)Cn1cc(-c2nc(C3(c4ccc(-c5cnc(N)nc5)cc4)CCC3)no2)cn1
- solubility kinetic [4]: > 43 µg/mL

Compound: Cc1cc(-c2nc(C3(c4ccc(-c5cnc(N)nc5)cc4)CCC3)no2)[nH]n1
- IC50 [3]: 80 nM
- solubility kinetic [4]: 3 µg/mL (≈ 8.03 µM)

Compound: CN(C(=O)Cn1cc(-c2nc(C3(c4ccc(-c5cnc(N)nc5)nc4)CCC3)no2)cn1)C(C)(C)C
- IC50 [3]: 262 nM
- solubility kinetic [4]: 27 µg/mL (≈ 55.4 µM)

Compound: CCn1cc(-c2nc(C3(c4ccc(-c5cnc(N)nc5)nc4)CCC3)no2)cn1
- IC50 [3]: 192 nM
- solubility kinetic [4]: > 38 µg/mL

Compound: N#CCCn1cc(-c2nc(C3(c4ccc(-c5cnc(N)nc5)cc4)CCC3)no2)cn1
- IC50 [3]: 37 nM
- solubility kinetic [4]: 17 µg/mL (≈ 41.2 µM)
- IC50 [7]: 1 nM

Compound: C[C@@](c1ccc(-c2cnc(N)nc2)nc1)(c1noc(-c2cnn(C3COC3)c2)n1)C1CC1
- solubility [1]: Soluble
- hepatic extraction ratio at 1 h, 1 µM [2]: 0.45
- IC50 [3]: 12 nM
- Kinetic_solubility [4]: Soluble
- IC50 [7]: 1.5 nM

Compound: CC(C)[C@](C)(c1ccc(-c2cnc(N)nc2)nc1)c1noc(-c2cnn(C)c2)n1
- solubility thermodynamic at 24 h, 1 µM [1]: 4 µg/mL (≈ 10.2 µM)
- hepatic extraction ratio at 1 h, 1 µM [2]: < 0.3
- IC50 [3]: 33 nM
- Kinetic_solubility [4]: Soluble
- IC50 [7]: 16 nM

Compound: CC(C)(C)NC(=O)Cn1cc(-c2nc(C3(c4ccc(-c5cnc(N)nc5)cc4)CCC3)no2)cn1
- solubility kinetic [4]: 22 µg/mL (≈ 46.6 µM)

Compound: Nc1ncc(-c2ccc(C3(c4noc(N5CC[C@H](O)C5)n4)CCC3)cc2)cn1
- hepatic extraction ratio at 1 h, 1 µM [2]: < 0.24
- IC50 [3]: 202 nM
- solubility kinetic [4]: > 37 µg/mL
- Ratio IC50 [8]: 6

Compound: CN(C)C(=O)N1CCN(c2nc([C@@](C)(c3ccc(-c4cnc(N)nc4)cc3)C3CC3)no2)CC1
- solubility [1]: Soluble
- hepatic extraction ratio at 1 h, 1 µM [2]: 0.52
- IC50 [3]: 58 nM
- Kinetic_solubility [4]: Soluble
- IC50 [7]: 12 nM
- inhibition at 5 min, 30 µM [9]: 36%

Compound: Nc1ncc(-c2ccc(C3(c4noc(-c5cnn(C6COC6)c5)n4)CCC3)cc2)cn1
- solubility kinetic [4]: > 41 µg/mL
- inhibition at 5 min, 11 µM [6]: 43%

Compound: CN(C)c1nc(C2(c3ccc(-c4cnc(N)nc4)nc3)CCC2)no1
- IC50 [3]: 2600 nM

Compound: CN(C)c1nc(C2(c3ccc(-c4cnc(N)nc4)cc3)CCC2)no1
- solubility kinetic [4]: 1.9 µg/mL (≈ 5.65 µM)

Compound: CC(C)(O)CN1CCN(c2nc([C@@](C)(c3ccc(-c4cnc(N)nc4)cc3)C3CC3)no2)CC1
- solubility [1]: Soluble
- hepatic extraction ratio at 1 h, 1 µM [2]: 0.36
- IC50 [3]: 99 nM
- inhibition at 5 min, 14 µM [10]: 26%
- Kinetic_solubility [4]: Soluble
- IC50 [7]: 53 nM

Compound: Nc1ncc(-c2ccc(C3(c4noc(N5CCCC5)n4)CCC3)cn2)cn1
- IC50 [3]: 917 nM

Compound: Cn1cc(-c2nc(C3(c4ccc(-c5cnc(N)nc5)cn4)CCC3)no2)cn1
- IC50 [3]: 787 nM
- solubility kinetic [4]: > 37 µg/mL

Compound: CC(C)(CO)n1cc(-c2nc(C3(c4ccc(-c5cnc(N)nc5)cc4)CCC3)no2)cn1
- IC50 [3]: 155 nM
- solubility kinetic [4]: > 43 µg/mL

Compound: Cc1cc(-c2nc(C3(c4ccc(-c5cnc(N)nc5)cn4)CCC3)no2)[nH]n1
- IC50 [3]: 342 nM
- solubility kinetic [4]: > 37 µg/mL

Compound: Nc1ncc(-c2ccc(C3(c4noc(N5CCCC5)n4)CCC3)cc2)cn1
- IC50 [3]: 467 nM
- solubility kinetic [4]: 16 µg/mL (≈ 44.1 µM)
- Ratio IC50 [8]: 56

Compound: N#CCCn1cc(-c2nc(C3(c4ccc(-c5cnc(N)nc5)nc4)CCC3)no2)cn1
- solubility thermodynamic at 24 h, 1 µM [1]: 9 µg/mL (≈ 21.8 µM)
- IC50 [3]: 85 nM
- solubility kinetic [4]: > 40 µg/mL
- IC50 [7]: 11 nM

Compound: CN(C)C(=O)Cn1cc(-c2nc([C@@](C)(c3ccc(-c4cnc(N)nc4)nc3)C3CC3)no2)cn1
- solubility [1]: Soluble
- hepatic extraction ratio at 1 h, 1 µM [2]: 0.67
- IC50 [3]: 48 nM
- Kinetic_solubility [4]: Soluble
- IC50 [7]: 2.9 nM

Compound: Nc1ncc(-c2ccc(C3(c4noc(N5CCN(CC6CCCO6)CC5)n4)CCC3)cc2)cn1 (stereo not given)
- hepatic extraction ratio at 1 h, 1 µM [2]: 0.49
- IC50 [3]: 182 nM
- solubility kinetic [4]: 26 µg/mL (≈ 56.3 µM)
- Ratio IC50 [8]: 2
- IC50 [7]: 92 nM

Compound: CC(C)(C)NC(=O)Cn1cc(-c2nc(C3(c4ccc(-c5cnc(N)nc5)nc4)CCC3)no2)cn1
- IC50 [3]: 195 nM
- solubility kinetic [4]: 26 µg/mL (≈ 54.9 µM)

Compound: CC(C)(C#N)n1cc(-c2nc(C3(c4ccc(-c5cnc(N)nc5)nc4)CCC3)no2)cn1
- IC50 [3]: 94 nM
- solubility kinetic [4]: 2 µg/mL (≈ 4.68 µM)

Compound: Cc1cc(-c2nc(C3(c4ccc(-c5cnc(N)nc5)nc4)CCC3)no2)[nH]n1
- IC50 [3]: 164 nM
- solubility kinetic [4]: > 37 µg/mL

Compound: COCCn1cc(-c2nc(C3(c4ccc(-c5cnc(N)nc5)nc4)CCC3)no2)cn1
- IC50 [3]: 213 nM
- solubility kinetic [4]: > 41 µg/mL

Compound: Cn1cc(-c2nc(C3(c4ccc(-c5cnc(N)nc5)cc4)CCC3)no2)cn1
- solubility kinetic [4]: 14 µg/mL (≈ 37.5 µM)
- inhibition at 5 min, 11 µM [6]: 25%

Compound: CC(C)(CO)n1cc(-c2nc(C3(c4ccc(-c5cnc(N)nc5)nc4)CCC3)no2)cn1
- IC50 [3]: 403 nM
- solubility kinetic [4]: > 43 µg/mL

Compound: CN(C(=O)Cn1cc(-c2nc(C3(c4ccc(-c5cnc(N)nc5)cc4)CCC3)no2)cn1)C(C)(C)C
- solubility kinetic [4]: 2 µg/mL (≈ 4.11 µM)

Compound: CC1(O)CN(c2nc([C@@](C)(c3ccc(-c4cnc(N)nc4)cc3)C3CC3)no2)C1
- solubility [1]: Soluble
- hepatic extraction ratio at 1 h, 1 µM [2]: < 0.24
- IC50 [3]: 72 nM
- Kinetic_solubility [4]: Soluble
- IC50 [7]: 16 nM
- inhibition at 5 min, 11 µM [6]: 13%

Compound: C[C@@](c1ccc(-c2cnc(N)nc2)nc1)(c1noc(-c2cnn(CC#N)c2)n1)C1CC1
- solubility [1]: Soluble
- hepatic extraction ratio at 1 h, 1 µM [2]: 0.57
- IC50 [3]: 19 nM
- Kinetic_solubility [4]: Soluble
- IC50 [7]: 8.1 nM

Compound: CC(C)OC1CCN(c2nc(C3(c4ccc(-c5cnc(N)nc5)cc4)CCC3)no2)CC1
- hepatic extraction ratio at 1 h, 1 µM [2]: 0.37
- IC50 [3]: 174 nM
- inhibition at 5 min, 14 µM [10]: 85%
- solubility kinetic [4]: 16 µg/mL (≈ 36.8 µM)
- IC50 [7]: 48 nM

Compound: CC1(O)CCN(c2nc([C@@](C)(c3ccc(-c4cnc(N)nc4)nc3)C3CC3)no2)CC1
- IC50 [3]: 115 nM
- IC50 [7]: 97 nM
- inhibition at 5 min, 30 µM [9]: 17%

Compound: CC(C)[C@](C)(c1ccc(-c2cnc(N)nc2)nc1)c1noc(-c2cnn(CC(=O)N(C)C)c2)n1
- solubility [1]: Soluble
- hepatic extraction ratio at 1 h, 1 µM [2]: < 0.3
- IC50 [3]: 197 nM
- Kinetic_solubility [4]: Soluble
- IC50 [7]: 54 nM

Compound: Nc1ncc(-c2ccc(C3(c4noc(N5CCNCC5)n4)CCC3)cc2)cn1
- hepatic extraction ratio at 1 h, 1 µM [2]: 0.35
- IC50 [3]: 680 nM
- solubility kinetic [4]: > 37 µg/mL
- Ratio IC50 [8]: 2
- IC50 [7]: 324 nM

Compound: Nc1ncc(-c2ccc(C3(c4noc(N5CCC(O)CC5)n4)CCC3)cn2)cn1
- IC50 [3]: 595 nM
- inhibition at 5 min, 30 µM [9]: 51%

Compound: COCCn1cc(-c2nc(C3(c4ccc(-c5cnc(N)nc5)cc4)CCC3)no2)cn1
- solubility kinetic [4]: > 41 µg/mL
